Data reported in US7148212B2, “Process for production of steroid crystals, steroid crystals obtained thereby and pharmaceutical preparations containing them” (Schering AG, priority 2002, dated 2006).
Marks after values point to notes of the source that are not given here.

Assay: Particle size distribution (Sympatec HELOS, dry dispersion)
Format: physicochemical
Protocol: Particle Size Distribution:
• Sympatec HELOS (H0445), dry dispersion system (RODOS), pressure 2 bar Content Uniformity Test: • Content Determination according to USP/Ph. Eur. for individual capsules after elution through HPLC with external calibration • Column: LiChrosphere 5μ RP-18 encapped, 150×3 mm • Eluent: acetonitrile/water=45/55 • Flow: 1 ml/min • Detection UV (272 nm) Active Ingredient Release: • Active ingredient release measured in 1000 mL water with 0.3% sodium dodecyl sulfate, 100 rpm • Content Determination y HPLC with external calibration • Column: LiChrosphere 5μ RP-18 encapped, 150×3 mm • Eluent: acetonitrile/water=45/55 • Flow: 1 ml/min • Detection UV (272 nm)

[1] = Example 1 microcrystals, ethyl acetate, three cycles 55/20° C., air dried
[2] = after drying on filter (ethyl acetate suspension)
[3] = after spray-drying (ethanol/water suspension)
[4] = suspension in ethanol/water (90/10) with 10% by weight microcrystalline J956, before drying
[5] = suspension in ethyl acetate with 14% by weight microcrystalline J956, before drying

## CCNC(=O)ON=Cc1ccc(C2CC3(C)C(CCC3(COC)OC)C3CCC4=CC(=O)CCC4=C23)cc1 (stereo not drawn) [J956, 11β-{4-[(ethylaminocarbonyl)oximinomethyl]phenyl}-17β-methoxy-17α-methoxymethyl-estra-4,9-dien-3-one]
[1]
  Particle size X10: 2.62 μm
  Particle size X50: 10.4 μm
[2]
  Particle size X10: 2.7 μm
  Particle size X50: 10.61 μm
  Particle size X90: 24 μm
[3]
  Particle size X10: 2.25 μm
  Particle size X50: 8.03 μm
  Particle size X90: 17 μm
  Particle size X100: 43 μm
[4]
  Particle size X10: 2.11 μm
  Particle size X50: 8.6 μm
  Particle size X90: 19 μm
  Particle size X100: 51 μm
[5]
  Particle size X10: 2.62*** μm
  Particle size X50: 10.4 μm
  Particle size X90: 24 μm
